The results in this text go back to ChEMBL document CHEMBL2062489, “Design, synthesis and biological evaluation of simplified side chains of the macrolide antibiotic etnangien” (2012).

The subject of test [1] is Bacillus subtilis. The test is described as follows: Antimicrobial activity against Bacillus subtilis by serial dilution method. Format: functional.
Test [2] relates to Gordonia rubripertincta. The test is described as follows: Antimicrobial activity against Nocardia coralline by serial dilution method. Format: functional.
For test [3], the system named is Staphylococcus aureus. The test is described as follows: Antimicrobial activity against Staphylococcus aureus by serial dilution method. Format: functional.
For test [4], the system named is Micrococcus luteus. The test is described as follows: Antimicrobial activity against Micrococcus luteus by serial dilution method. The test is classed as functional.
In test [5] the test system is Escherichia coli. The test is described as follows: Antimicrobial activity against Escherichia coli by serial dilution method. The test is classed as functional.
Test [6] concerns Saccharomyces cerevisiae. In words: Antimicrobial activity against Saccharomyces cerevisiae by serial dilution method. The test is classed as functional.
Test [7] has as its system Corynebacterium glutamicum. In words: Antimicrobial activity against Corynebacterium glutamicum by serial dilution method. The test is classed as functional.
The subject of test [8] is Mycobacterium sp. The test is described as follows: Antimicrobial activity against Mycobacterium sp. by serial dilution method. The test is classed as functional, organism-based.
For test [9], the system named is Agromyces mediolanus. In words: Antimicrobial activity against Corynebacterium mediolanum by serial dilution method. Format: functional.
The subject of test [10] is Mycolicibacterium phlei. In words: Antimicrobial activity against Mycobacterium phlei by serial dilution method. Format: functional.

Converted amounts (≈) assume the structure as drawn. The source made the active and inactive calls.

One may read the MIC as the smallest concentration in the dilution series that meets the test's criterion for growth inhibition. Read a high MIC as a need for much substance. On to `COC(=O)CC/C=C(\C)[C@@H](O)C/C=C/C=C/C=C/C=C/C=C/C(C)=C/[C@@H](O)[C@@H](C)[C@@H]1C[C@H](O)CCC[C@H](OC)C/C=C\C=C\C[C@H](C)[C@@H](O)[C@H](C)[C@@H](O)[C@H](C)[C@H](O)CC(=O)O1` [ETNANGIEN METHYL ESTER], for which the MIC was 20 µg/mL (≈ 23.4 µM) in test [1]; 2.5 µg/mL (≈ 2.92 µM) in test [3]; 0.06 µg/mL (≈ 0.0702 µM) in test [4]; more than 20 µg/mL in [5]; more than 40 µg/mL in test [6]; 0.24 µg/mL (≈ 0.281 µM) in test [7]. Also, the outcome in [2] and in test [8] was Active.
Turning to `COC(=O)CC/C=C/[C@@H](O)C/C=C/C=C/C=C/CC/C=C/C=C/[C@@H](O)[C@@H](C)COCc1ccc(OC)cc1`, the MIC in test [1] was more than 80 µg/mL; in [3], more than 80 µg/mL; in test [4], more than 80 µg/mL; in test [5] it was more than 80 µg/mL; in [9], more than 80 µg/mL; in test [10], more than 40 µg/mL. The MIC in test [6] and in [7] was more than 80 µg/mL each time.
For `COC(=O)CC/C=C/[C@@H](O)C/C=C/C=C/C=C/C=C/C=C/[C@@H](O)[C@@H](C)CO`, the MIC in test [1] is more than 80 µg/mL; in test [3], more than 80 µg/mL; in test [4], more than 80 µg/mL; in [5], more than 80 µg/mL; in test [9], more than 80 µg/mL; in test [10], more than 40 µg/mL. Besides, the MIC in test [6] and in test [7] was more than 80 µg/mL in each case.
Turning to `COC(=O)CC/C=C/[C@@H](O)C/C=C/C=C/C=C/C=C/C=C/[C@@H](O)[C@@H](C)COCc1ccc(OC)cc1`, the MIC in test [1] was more than 80 µg/mL; in [3], more than 80 µg/mL; in test [4], more than 80 µg/mL; in test [5] it was more than 80 µg/mL; in [9] it was more than 80 µg/mL; in test [10], more than 40 µg/mL. The MIC in test [6] is more than 80 µg/mL; in [7], 80 µg/mL (≈ 161 µM).
Regarding `CO[C@@H]1C/C=C\C=C\C[C@H](C)[C@@H](O)[C@H](C)[C@@H](O)[C@H](C)[C@H](O)CC(=O)O[C@H]([C@H](C)[C@H](O)/C=C(C)/C=C/C=C/C=C/C=C/C=C/C[C@H](O)/C(C)=C/CCC(=O)O)C[C@H](O)CCC1` [ETNANGIEN], the MIC in test [1] is 10 µg/mL (≈ 11.9 µM); in [3], 1 µg/mL (≈ 1.19 µM); in test [4] it was 0.39 µg/mL (≈ 0.464 µM); in test [5], more than 80 µg/mL; in [9], 0.06 µg/mL (≈ 0.0713 µM); in test [10] it was 0.12 µg/mL (≈ 0.143 µM). For the same compound, the results for the MIC in test [6] and in test [7] were more than 80 µg/mL and 0.03 µg/mL (≈ 0.0357 µM), respectively. The outcome in test [2] and in test [8] was Active.
With `COC(=O)CC/C=C/[C@@H](O)C/C=C/C=C/C=C/CC/C=C/C=C/[C@@H](O)[C@@H](C)CO`, the minimum inhibitory concentration (MIC) is 20 µg/mL (≈ 49.4 µM) in test [1]; 80 µg/mL (≈ 198 µM) in test [3]; more than 80 µg/mL in [4]; more than 80 µg/mL in test [5]; 40 µg/mL (≈ 98.9 µM) in [9]; more than 40 µg/mL in test [10]. Moreover, the MIC is more than 80 µg/mL in test [6] and 80 µg/mL (≈ 198 µM) in [7].
As to `COC(=O)CC/C(C)=C/[C@@H](O)C/C=C/C=C/C=C/C=C/C=C/C(C)=C/[C@@H](O)[C@@H](C)COCc1ccc(OC)cc1`, the MIC in test [1], in [3], in [4], in [5], in test [9] and in test [10] was more than 40 µg/mL each time. Also, the MIC in test [6] and in [7] was more than 40 µg/mL each time.
